Earlier results on one compound are cited in patent US20040235753A1, “Oxytocin agonists” (priority 2001, published 2004).

Structures are written as SMILES. Read-outs that look alike come from different tables or passages of the source.

The test system of this series is erectile response. Particulars: male rats.

With `CC[C@H](C)[C@@H]1NC(=O)[C@H](Cc2ccc(O)cc2)NC(=O)[C@@H](N)CSSC[C@@H](C(=O)N2CCC[C@H]2C(=O)N[C@@H](CC(C)C)C(=O)NCC(N)=O)NC(=O)[C@H](CC(N)=O)NC(=O)[C@H](CCC(N)=O)NC1=O` [OT, oxytocin], the erectogenic activity result runs as follows: (i.c.v.) “erectogenic”; (i.v., doses required up to two orders of magnitude greater than i.c.v.) “erectogenic activity”.
